Consider seven compounds from US6124280A, “Substituted phenols as novel calcium channel blockers” (Warner-Lambert Company, priority 1998, dated 2000).

In assay [1] the target is T1, N-type voltage gated calcium channels (chicken brain synaptosomes) (Gallus gallus, UniProt A0A8V1AJW5).
T1 construct: K+-stimulated 45Ca influx; auxiliary alpha2delta and beta subunits present but not identified
The assay is described as follows: Chick Whole Brain Synaptosomal ^45 Calcium Flux Assay (inhibition of potassium stimulated calcium influx). The format is biochemical. The conditions noted are these: 20 mM KCl stimulated minus 3 mM KCl basal; 5 min drug pre-incubation, room temperature; 30-second incubation; read-out: Inhibition of ^45 Ca^+2 Influx in Chick Synaptosomes IC50. How it is done:
(§1) To measure interaction at the N-type calcium channel and calcium flux inhibition, the effects of the calcium channel blockers were measured in the assays described below.
A compound is assessed at various concentrations for its ability to inhibit this potassium stimulated calcium influx.
One- to five-week old chicks were killed by decapitation and whole brain was removed. The brainstem was discarded, and the remaining brain tissue was placed in ice-cold sucrose buffer (composition: 320 mM sucrose, 5.0 mM TRIS base, 0.1 mM EDTA, pH adjusted to 7.3 with HCl). The total wet weight of pooled brain tissue was determined, and the tissue was homogenized in 10 mL sucrose buffer per gram wet weight. A Potter S-type homogenizer (B. Braun Co.) with a glass tube and teflon pestle was used. Five strokes at 400 rpm were followed by four strokes at 800 rpm. The homogenate was poured into cold centrifuge tubes and centrifuged for 10 minutes at 3000 rpm (1,075 g) in a refrigerated 4° C. RC-5 centrifuge (Sorvall) using an SS-34 rotor. The supernatant was collected and centrifuged at 11,500 rpm (15,800 g) for 10 minutes. The supernatant was discarded, and the pellet was resuspended in 1 mL sucrose buffer. Cold incubation buffer (composition: 1.2 mM MgCl2, 22 mM HEPES, 11 mM glucose, 3 mM KCl, 136 mM choline chloride, pH adjusted to 7.3 with TRIS base) was added slowly to the suspension for a total volume of 30 to 40 mL. This mixture was centrifuged at 7,000 rpm (5,856 g) for 5 minutes. The supernatant was discarded, and the pellet was resuspended in 5 mL of incubation buffer per gram of original wet weight of brain. This synaptosomal suspension was kept on ice until the start of the assay, at which time 35 μL of synaptosome suspension were added to each well of a 96-well filter plate (Millipore) which contained 75 μL incubation buffer with or without drug. Drugs were dissolved in DMSO or H2 O, and the concentration of DMSO was less than or equal to 1%.
Synaptosomes were pre-incubated in the presence or absence of drug for 5 minutes at room temperature before the addition of radioactive calcium. Drugs were present throughout the assay. Two μCi/mL stocks of ^45 CaCl2 were prepared in basal buffer (composition: incubation buffer plus 1 mM CaCl2) and in stimulation buffer (composition: 1.2 mM MgCl2, 22 mM HEPES, 11 mM glucose, 37 mM KCl, 102 mM choline chloride, 1 mM CaCl2, pH adjusted to 7.3 with TRIS base). One hundred microliter of radioactive basal or stimulation buffer were pipetted into a pre-incubated plate of synaptosomes using a Quadra 96 pipetter (Tomtec). The final KCl concentration was 3 mM for the basal condition and 20 mM for the stimulated condition; the final CaCl2 concentration was 0.5 mM with 1 μCi/mL of ^45 CaCl2. The plate was filtered under vacuum after a 30-second incubation with radioactivity. The filters were washed twice with 200 μL of wash buffer (composition: 140 mM choline chloride, 3 mM EGTA, 22 mM HEPES, pH adjusted to 7.3 with TRIS base). Plates were allowed to dry completely. Scintillation fluid was added (20 μL/well), and the plates were counted in a Wallace Microbeta plate counter. Basal ^45 CaCl2 flux (3 mM KCl) was subtracted from stimulated ^45 CaCl2 flux (20 mM KCl) in both control and drug-treated conditions, and data were expressed as percent inhibition of the adjusted control response. Values obtained in this way were plotted as a function of drug concentration and IC50 values were calculated.

Assay [2] deals with T2, N-type calcium channels (IMR-32 cells) (Homo sapiens, UniProt Q00975).
T2 construct: host or cells: IMR-32, differentiated with dibutyryl cAMP and bromodeoxyuridine
The assay is described as follows: N-type Ca2+ channel blocking potency in IMR-32 cells using fluorescent Ca2+ indicator Indo-1. The assay is classed as cell-based. The conditions noted are these: K+ depolarization, 5 μM nitrendipine present to block L-type channels, 10 min at 30° C., read-out: Inhibition of ^45 Ca^+2 Influx in IMR-32 Cells IC50. How it is done: as §1
IMR-2 cells are a human tumoral cell line of neural origin. […] Calcium flux into these cells may be induced by stimulation with elevated potassium concentrations. The L-channel component of calcium flux may be blocked by adding 5 μM nitrendipine. The remaining component of calcium entry into the IMR-32 cells is due to calcium flux through N-type calcium channels. Intracellular calcium concentrations are measured using the fluorescent calcium indicator Indo-1. The effect of drug concentration on calcium uptake is studied.
The IMR-32 cell line was obtained from the American Type Culture Collection (Rockville, Md.). Cells were grown in Eagle's Minimum Essential Medium with Earle's salts supplemented with 10% fetal bovine serum, 2 mM L-Gln and antibiotic/antimicotic mixture (Gibco). At approximately 80% confluency, differentiation was induced by the addition of 1 mM dibutyryl cAMP and 2.5 μM bromodeoxyuridine to the medium. After 7 to 13 days of differentiation, cells were detached using 0.5 mM EDTA and loaded with 5 μM Indo-1 acetoxymethyl ester (Molecular Probes, Eugene, Or.) at 30° C. for 45 minutes. Loaded cells were washed twice, resuspended (~10^7 cells/mL) in assay buffer (10 mM HEPES/Tris pH 7.4 in Hank's Balanced Salt Solution without bicarbonate or phenol red containing 0.5% bovine serum albumin) and kept on ice until use. Fluorescence measurements were carried out in a Photon Technology International (PTI, South Brunswick, N.J.) Model RF-F3004 spectrofluorometer with dual emission monochromators using excitation at 350 nm and emission at 400 and 490 nm. The instrument was equipped with a thermostatted cuvette holder with stirring capabilities as well as with a computer-controlled pump which allowed for reagent addition during measurement. Instrument control and data collection was done by PTI's OSCAR software running on an IBM compatible computer. Different concentrations of the test compounds (60 μL in dimethyl sulfoxide) were added to 5.94 mL of assay buffer containing approximately 3×10^6 loaded cells, and 5 μM Nitrendipine (in 30 μL EtOH) to block L-type Ca^2+ channels. Samples were incubated for 10 minutes at 30° C. and then aliquoted into three 10×10 mm disposable acrylic cuvettes. Emission signals at 400 and 490 nm were acquired from each cuvette at 30° C. for 50 seconds. At 20 seconds after the start of reading, cells were depolarized by the addition of 160 μL of stimulation solution (1M KCl, 68 mM CaCl2) to the cuvette via the computer-controlled pump. Ratio of dual emission signals (400 nm/490 nm), which is proportional to intracellular Ca^2+ concentration, was plotted against time, and the difference between maximal response after stimulation and basal value (before stimulation) was determined. Values obtained in this way were plotted as a function of drug concentration. IC50 values of test compounds were calculated by fitting a 4-parameter logistic function to the data using the least squares method.

For assay [3], the system named is N-type calcium channel. The settings on record: cited: Bowersox et al. 1994; cited from earlier work.

Where a name gives a salt, the structure may show the parent alone. Positions of bridges follow the written chain, without caps; N, C: chain ends. No end group written: not given here.

T2 sequence (Q00975 whole entry): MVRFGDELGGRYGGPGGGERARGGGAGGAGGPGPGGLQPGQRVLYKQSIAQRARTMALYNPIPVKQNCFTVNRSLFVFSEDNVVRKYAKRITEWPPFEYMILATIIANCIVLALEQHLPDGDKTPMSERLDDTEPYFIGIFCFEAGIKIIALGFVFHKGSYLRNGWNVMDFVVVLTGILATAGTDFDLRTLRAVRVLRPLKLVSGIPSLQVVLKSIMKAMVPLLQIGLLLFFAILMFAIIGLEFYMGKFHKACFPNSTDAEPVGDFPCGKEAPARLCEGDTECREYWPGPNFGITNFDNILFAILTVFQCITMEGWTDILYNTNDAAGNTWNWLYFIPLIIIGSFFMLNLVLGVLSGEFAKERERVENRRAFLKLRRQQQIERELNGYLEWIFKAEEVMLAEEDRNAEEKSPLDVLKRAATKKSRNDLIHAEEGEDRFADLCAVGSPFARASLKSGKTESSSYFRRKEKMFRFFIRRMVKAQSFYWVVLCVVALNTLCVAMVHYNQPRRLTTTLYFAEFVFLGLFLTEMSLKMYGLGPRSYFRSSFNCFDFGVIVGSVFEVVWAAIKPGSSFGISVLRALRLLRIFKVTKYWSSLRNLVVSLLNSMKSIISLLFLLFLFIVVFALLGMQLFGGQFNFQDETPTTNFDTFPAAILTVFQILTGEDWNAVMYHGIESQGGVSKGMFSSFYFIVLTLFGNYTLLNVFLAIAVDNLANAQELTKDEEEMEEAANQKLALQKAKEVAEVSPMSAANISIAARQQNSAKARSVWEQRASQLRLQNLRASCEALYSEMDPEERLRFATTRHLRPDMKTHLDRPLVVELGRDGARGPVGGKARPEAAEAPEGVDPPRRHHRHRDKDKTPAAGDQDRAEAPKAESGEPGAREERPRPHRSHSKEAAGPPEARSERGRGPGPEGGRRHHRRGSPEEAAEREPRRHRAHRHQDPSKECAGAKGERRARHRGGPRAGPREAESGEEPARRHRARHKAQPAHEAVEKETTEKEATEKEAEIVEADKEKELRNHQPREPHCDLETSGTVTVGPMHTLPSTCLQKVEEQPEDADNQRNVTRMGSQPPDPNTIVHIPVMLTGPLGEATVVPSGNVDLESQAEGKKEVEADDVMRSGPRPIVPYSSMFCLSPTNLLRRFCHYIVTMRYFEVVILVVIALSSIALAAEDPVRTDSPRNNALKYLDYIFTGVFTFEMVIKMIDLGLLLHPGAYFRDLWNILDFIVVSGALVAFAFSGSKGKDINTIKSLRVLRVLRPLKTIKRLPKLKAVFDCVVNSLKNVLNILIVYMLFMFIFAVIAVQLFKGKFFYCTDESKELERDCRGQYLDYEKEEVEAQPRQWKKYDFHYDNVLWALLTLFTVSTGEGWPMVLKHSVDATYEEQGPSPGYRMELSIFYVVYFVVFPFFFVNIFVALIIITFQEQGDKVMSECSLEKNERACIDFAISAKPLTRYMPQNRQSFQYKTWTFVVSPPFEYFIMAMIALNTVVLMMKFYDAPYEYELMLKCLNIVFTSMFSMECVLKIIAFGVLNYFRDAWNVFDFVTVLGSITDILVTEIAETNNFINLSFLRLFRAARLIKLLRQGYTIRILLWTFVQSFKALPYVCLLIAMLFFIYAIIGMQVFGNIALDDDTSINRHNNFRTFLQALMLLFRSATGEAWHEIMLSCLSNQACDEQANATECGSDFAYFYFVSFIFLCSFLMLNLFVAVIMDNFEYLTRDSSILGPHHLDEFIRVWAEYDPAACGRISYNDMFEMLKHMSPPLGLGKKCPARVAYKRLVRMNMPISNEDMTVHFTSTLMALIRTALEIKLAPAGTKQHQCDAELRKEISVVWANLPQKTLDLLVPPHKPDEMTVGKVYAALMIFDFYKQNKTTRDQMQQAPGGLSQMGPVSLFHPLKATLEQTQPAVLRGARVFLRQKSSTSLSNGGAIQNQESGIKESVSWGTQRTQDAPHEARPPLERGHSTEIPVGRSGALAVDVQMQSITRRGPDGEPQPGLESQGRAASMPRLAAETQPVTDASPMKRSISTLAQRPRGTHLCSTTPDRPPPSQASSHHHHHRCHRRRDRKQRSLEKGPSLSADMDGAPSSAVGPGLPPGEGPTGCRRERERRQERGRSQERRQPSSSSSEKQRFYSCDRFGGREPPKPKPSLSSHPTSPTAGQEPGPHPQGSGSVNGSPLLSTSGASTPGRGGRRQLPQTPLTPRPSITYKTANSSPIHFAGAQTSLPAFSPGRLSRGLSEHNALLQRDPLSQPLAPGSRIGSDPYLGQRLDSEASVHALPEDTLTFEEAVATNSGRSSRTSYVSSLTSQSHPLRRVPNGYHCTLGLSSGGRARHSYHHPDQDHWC
T2 sequence (P54289 25-944 partner limits assumed): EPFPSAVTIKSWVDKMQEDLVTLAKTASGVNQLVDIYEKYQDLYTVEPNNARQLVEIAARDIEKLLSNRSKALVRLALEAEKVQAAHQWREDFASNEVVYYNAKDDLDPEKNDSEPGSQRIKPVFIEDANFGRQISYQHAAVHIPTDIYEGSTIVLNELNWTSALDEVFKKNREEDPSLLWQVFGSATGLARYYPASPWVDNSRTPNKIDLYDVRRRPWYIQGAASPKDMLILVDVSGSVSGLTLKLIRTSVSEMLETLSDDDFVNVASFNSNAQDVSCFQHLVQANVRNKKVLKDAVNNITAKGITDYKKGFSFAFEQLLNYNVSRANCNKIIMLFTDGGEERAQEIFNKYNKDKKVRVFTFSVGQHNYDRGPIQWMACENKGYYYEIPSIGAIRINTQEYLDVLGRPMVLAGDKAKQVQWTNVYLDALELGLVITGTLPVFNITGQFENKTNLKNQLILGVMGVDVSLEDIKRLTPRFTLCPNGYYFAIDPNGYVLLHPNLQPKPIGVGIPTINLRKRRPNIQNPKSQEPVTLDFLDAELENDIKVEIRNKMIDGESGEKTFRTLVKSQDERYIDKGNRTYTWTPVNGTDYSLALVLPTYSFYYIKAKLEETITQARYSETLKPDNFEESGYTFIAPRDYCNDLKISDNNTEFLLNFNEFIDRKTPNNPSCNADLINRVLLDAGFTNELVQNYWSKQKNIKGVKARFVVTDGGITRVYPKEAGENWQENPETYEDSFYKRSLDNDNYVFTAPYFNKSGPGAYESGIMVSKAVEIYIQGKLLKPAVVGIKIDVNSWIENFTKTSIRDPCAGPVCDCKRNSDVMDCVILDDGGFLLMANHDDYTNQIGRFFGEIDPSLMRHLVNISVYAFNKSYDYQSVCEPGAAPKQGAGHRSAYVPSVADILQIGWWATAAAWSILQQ
T2 sequence (P54289 945-1103 partner limits assumed): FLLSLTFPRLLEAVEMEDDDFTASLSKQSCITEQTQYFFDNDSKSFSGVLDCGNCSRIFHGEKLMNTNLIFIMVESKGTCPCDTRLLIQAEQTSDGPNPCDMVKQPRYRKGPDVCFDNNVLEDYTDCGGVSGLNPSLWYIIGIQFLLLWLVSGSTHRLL

`CC(CCC(c1ccccc1)c1ccccc1)(c1ccc(O)c(CN2CCCCCC2)c1)c1ccc(O)c(CN2CCCCCC2)c1` [Example 6, 4,4'-(1-Methyl-4,4-diphenylbutylidene)bis[2-[(hexahydro-1H-azepin-1-yl)methyl]phenol] oxalic acid salt]: the IC50 stood at 3150 nM in assay [1] and 740 nM in assay [2].
With `CC(CCCN(Cc1ccccc1)Cc1ccccc1)(c1ccc(O)c(CN2CCCCCC2)c1)c1ccc(O)c(CN2CCCCCC2)c1` [Example 10, 4,4'-[4-[Bis(phenylmethyl)amino]-1-methylbutylidene]-bis[2-[(hexahydro-1H-azepin-1yl)methyl]phenol] oxalic acid salt], the figures for the IC50 in assay [1] and in assay [2] were 4200 nM and 430 nM, respectively.
`O=C(NCC(c1ccc(O)c(CN2CCCCCC2)c1)c1ccc(O)c(CN2CCCCCC2)c1)C(c1ccccc1)c1ccccc1` [Example 20, N-[2,2 -Bis-(3-azepan-1-ylmethyl-4-hydroxyphenyl)ethyl]-2,2-diphenylacetamide oxalic acid salt]: the IC50 in assay [1] was 2400 nM.
On to `CC(CCC(O)(c1ccccc1)c1ccccc1)(c1ccc(O)c(CN2CCCCCC2)c1)c1ccc(O)c(CN2CCCCCC2)c1` [Example 3, 4,4'-(4-Hydroxy-1-methyl-4,4-diphenylbutylidene)bis[2-[(hexahydro-1H-azepin-1-yl)methyl]phenol] oxalic acid salt], for which the results for the IC50 in assay [1] and in assay [2] were 1400 nM and 490 nM, respectively.
As to `CC(NC(=O)c1ccccc1)C(c1ccc(O)c(CN2CCCCCC2)c1)c1ccc(O)c(CN2CCCCCC2)c1` (stereo not drawn) [Example 21, N-[2,2-Bis-(3-azepan-1-ylmethyl-4-hydroxyphenyl)-1-methylethyl]benzamide oxalic acid salt], the IC50 came to 2200 nM in assay [1] and 14000 nM in assay [2].
In the case of “SNX-111: selective N-type calcium channel blocker, SNX-111 (CKGKGAKCSRLMYDCCTGSCRSGKC-NH2; disulfide 1-16, 15-25, 8-20; UniProt P05484 46-70, looked up)”, the “activity in a number of models of ischemia and pain” value in assay [3] is on record as “demonstrated activity”.
With `O=C(NCC(c1ccc(O)c(CN2CCCCCC2)c1)c1ccc(O)c(CN2CCCCCC2)c1)c1ccccc1` [Example 19, N-[2,2-Bis-(3-azepan-1-ylmethyl-4-hydroxyphenyl)ethyl]-benzamide oxalic acid salt], the IC50 amounted to 2400 nM in assay [1] and 17000 nM in assay [2].

As a reminder, the IC50 is the concentration that inhibits the measured activity by half.
